Where two headings read alike, the source gives them in different places.
Legend:
DLD-1 BRCA2−/− cells = assay: Homologous recombination synthetic lethal inhibition of proliferation, DLD-1 BRCA2-/- (Cell Titre Glo 3D); format: cell-based; conditions: for IC50: Homo sapiens
Summary of the method: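 Read-out: CellTiter-Glo 3D luminescence, day 7 for wt DLD-1, day 12 for BRCA2−/−, about 8-9 population doublings each. Seeding 1,500 or 3,000 cells/mL respectively. Dose range 10 μM–0.51 nM, 3-fold, 10 points, with re-dosing on day 6. IC50 from curve fit.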

DLD-1 cells = assay: Inhibition of proliferation, DLD-1 BRCA2 wt control (Cell Titre Glo 3D); format: cell-based; conditions: for IC50: Homo sapiens
Description: This assay identifies anti-proliferative effects of POLQ compounds in the homologous recombination deficient colorectal cell line DLD-1 BRCA2−/− over 8-9 population doublings (7 days for DLD-1 and 12 days for DLD-1 BRCA2−/−). DLD1 BRCA2 wt are used as a control to detect cell toxic effects not specific to homologous recombination deficiency.
DLD-1 BRCA2−/− and DLD-1 cells were kept in continuous culture in Assay Medium (RPMI 1640 phenol red free (Sigma R7509) containing 1% GlutaMAX (Gibco 35050) and 10% Foetal Bovine Serum (Gibco 10270-106)). On the day of the assay cells in culture of ˜80-90% confluent were used. Cell monolayers were washed with 10 mL PBS, then removed and added 2 mL TrypLE Express (Gibco 12604). The cells with TrypLE Express were incubated for 5 minutes in cell culture incubator and then the detached cells resuspend in 15 mL Assay Medium. Cells were counted using a ViCell and the cell images were monitored for clumps of cells, ideally they should be single or <3 cell clusters. The cells were diluted to 3,000 cells/mL of DLD-1 BRCA2−/− and 1,500 cells/mL of DLD-1 in Assay Medium and 100 μL added per well of transparent bottomed, black, tissue culture-treated 96-well plates (CoStar, No. 3904) Assay Ready Plates. The Assay Ready Plates contain a 10 point 10 μM to 0.51 nM dose range with three-fold dilutions in DMSO with a final volume of 100 nL. The plates were incubated at 37° C. with 5% C02 for 6 days. On day 6, 100 μL/well of Assay Medium was added to duplicate Assay Ready Plates. 90 μL of culture medium was removed from the cell plates and replenished with the Assay Media and compounds from the duplicate Assay Ready Plates using the Bravo. The plates were further incubated at 37° C. with 5% CO2. On day 7 the plates containing DLD-1 and Cell Titre Glo 3D (Promega G9683) were equilibrated to room temperature, then 60 μL of Cell Titre Glo 3D was added per well and incubated on a shaking platform for 30 min. Plates were read on the Envision measuring luminescence for 1 second per well. On day 12 the plates containing DLD-1 BRCA2−/− cells and Cell Titre Glo 3D (Promega G9683) were equilibrated to room temperature, then 60 μL Cell Titre Glo 3D added per well and incubated on a shaking platform for 30 min. Plates were read on the Envision measuring luminescence for 1 second per well. The data was exported into a suitable software package (such as Genedata) to perform curve fitting analysis. Inhibition of cell proliferation was expressed as an IC5o value and was determined by calculation of the concentration of compound that was required to give a 50% reduction of the average maximum Total Intensity signal.

[1] = DLD-1, DLD-1 BRCA2 −/− cells, mean, read-out: POLQ PD Prolif Lumin BRCA2 −/− mean pIC50 (converted)
[2] = DLD-1, DLD1 BRCA2 wt cells, mean, read-out: POLQ PD Prolif Lumin DLD1 mean PIC50 (converted)
[3] = DLD-1, first proliferation column (c5), DLD-1 BRCA2-/-, read-out: POLQ PD Prolif Lumin (converted)
[4] = DLD-1, second proliferation column (c6), DLD-1 BRCA2 wt control, read-out: POLQ PD Prolif Lumin (converted)
[5] = DLD-1, DLD-1 BRCA2-/- proliferation, column head only partly shown, read-out: POLQ PD Prolif Lumin (converted)
[6] = DLD-1, DLD-1 BRCA2 wt control proliferation, column head only partly shown, read-out: POLQ PD Prolif Lumin (converted)
[7] = DLD-1, 288 h, DLD-1 BRCA2−/− cells, 12 days, read-out: POLQ PD Prolif Lumin BRCA2 −/− mean pIC50 (converted)
[8] = DLD-1, 168 h, DLD-1 BRCA2 wt cells, 7 days, read-out: POLQ PD Prolif Lumin DLD1 mean pIC50 (converted)
[9] = DLD-1, 288 h, DLD-1 BRCA2−/−, 12 days, Cell Titre Glo 3D, read-out: POLQ PD Prolif Lumin BRCA2 −/− Mean pIC50 (converted)
[10] = DLD-1, 168 h, DLD-1 (BRCA2 wt control), 7 days, Cell Titre Glo 3D, read-out: POLQ PD Prolif Lumin DLD1 Mean pIC50 (converted)
[11] = DLD-1, DLD-1 BRCA2 −/−, mean, read-out: POLQ PD Prolif Lumin BRCA2 −/− mean pIC50 (converted)
[12] = DLD-1, DLD1 BRCA2 wt, mean, read-out: POLQ PD Prolif Lumin DLD1 mean pIC50 (converted)

## Cc1ccnc(Cn2c(-c3ccc(NS(C)(=O)=O)cc3Cl)nc3c(OC4(C)CC4)ncnc32)c1 [Example T29, N-(3-chloro-4-(6-(1-methylcyclopropoxy)-9-((4-methylpyridin-2-yl)methyl)-9H-purin-8-yl)phenyl)methanesulfonamide]
DLD-1 BRCA2−/− cells; [1]
  IC50: 1260 nM
DLD-1 cells; [2]
  IC50: > 10000 nM

## Cc1ccnc(Cn2c(-c3ccc(CC(=O)N4C[C@@H]5C[C@H]4CN5)cc3Cl)nc3c(OC4(C)CC4)ncnc32)c1 [Example T559, 1-((1S,4S)-2,5-diazabicyclo[2.2.1]heptan-2-yl)-2-(3-chloro-4-(6-(1-methylcyclopropoxy)-9-((4-methylpyridin-2-yl)methyl)-9H-purin-8-yl)phenyl)ethan-1-one]
DLD-1 BRCA2−/− cells; [3]
  IC50: > 6310 nM
DLD-1 cells; [4]
  IC50: > 10000 nM

## CC(CCOc1ccc(-c2nc3c(OC4(C)CC4)ncnc3n2Cc2cccc(I)c2)c(Cl)c1)C(=O)O (racemic) [Example T285, 4-(3-chloro-4-(9-(3-iodobenzyl)-6-(1-methylcyclopropoxy)-9H-purin-8-yl)phenoxy)-2-methylbutanoic acid]
DLD-1 BRCA2−/− cells; [5]
  IC50: 251 nM
DLD-1 cells; [6]
  IC50: > 10000 nM

## CN(C)[C@@H]1CCN(c2ccc(-c3nc4c(OC5(C)CC5)ncnc4n3Cc3ccccc3)c(Cl)c2)C1 [Example C4, (R)-1-(4-(9-benzyl-6-(1-methylcyclopropoxy)-9H-purin-8-yl)-3-chlorophenyl)-N,N-dimethylpyrrolidin-3-amine]
DLD-1 BRCA2−/− cells; [7]
  IC50: 200 nM
DLD-1 cells; [8]
  IC50: 2510 nM

## CC1(Oc2ncnc3c2nc(-c2cccc(OCCC(=O)O)c2Cl)n3Cc2cccc(Cl)c2)CC1 [Example T89, 3-(2-chloro-3-(9-(3-chlorobenzyl)-6-(1-methylcyclopropoxy)-9H-purin-8-yl)phenoxy)propanoic acid]
DLD-1 BRCA2−/− cells; [1]
  IC50: 39.8 nM
DLD-1 cells; [2]
  IC50: > 10000 nM

## CC(C)Oc1ccc2c(c1)nc(-c1ccc(OCCC3CCCN3C)cc1Cl)n2Cc1ccccc1 (single isomer, unassigned) [Example A9, 1-benzyl-2-(2-chloro-4-(2-(1-methylpyrrolidin-2-yl)ethoxy)phenyl)-5-isopropoxy-1H-benzo[d]imidazole]
DLD-1 BRCA2−/− cells; DLD-1 BRCA2−/− cells, 12 days
  POLQ PD Prolif Lumin BRCA2 −/− mean pIC50: 6.7
DLD-1 cells; DLD-1 BRCA2 wt cells, 7 days
  POLQ PD Prolif Lumin DLD1 mean pIC50: 6.3

## CC(COc1ccc(-c2nc3c(OC4(C)CC4)ncnc3n2Cc2cccc(Cl)c2)c(Cl)c1)CC(=O)O (single isomer, unassigned) [Example T295, 4-(3-chloro-4-(9-(3-chlorobenzyl)-6-(1-methylcyclopropoxy)-9H-purin-8-yl)phenoxy)-3-methylbutanoic acid]
DLD-1 BRCA2−/− cells; DLD-1 BRCA2-/- proliferation, column head only partly shown
  POLQ PD Prolif Lumin: 6.9
DLD-1 cells; DLD-1 BRCA2 wt control proliferation, column head only partly shown
  POLQ PD Prolif Lumin: <5.0

## CC1(Oc2ncnc3c2nc(-c2ccc(OCCOCCOCC(=O)O)cc2Cl)n3Cc2cccc(Cl)c2)CC1 [Example T451, 2-(2-(2-(3-chloro-4-(9-(3-chlorobenzyl)-6-(1-methylcyclopropoxy)-9H-purin-8-yl)phenoxy)ethoxy)ethoxy)acetic acid]
DLD-1 BRCA2−/− cells; DLD-1, proliferation, luminescence, taken as DLD-1 BRCA2-/-, read-out: POLQ PD Prolif Lumin (converted)
  IC50: 501 nM
DLD-1 cells; DLD-1, proliferation, luminescence, second Prolif column (c6), taken as DLD-1 BRCA2 wt control, read-out: POLQ PD Prolif Lumin (converted)
  IC50: > 10000 nM

## CC1(Oc2ncnc3c2nc(-c2ccc(OCc4nc(C(=O)O)cs4)cc2Cl)n3Cc2cccc(Cl)c2)CC1 [Example T250, 2-((3-chloro-4-(9-(3-chlorobenzyl)-6-(1-methylcyclopropoxy)-9H-purin-8-yl)phenoxy)methyl)thiazole-4-carboxylic acid]
DLD-1 BRCA2−/− cells; [5]
  IC50: 3160 nM
DLD-1 cells; [6]
  IC50: > 10000 nM

## Cc1ccnc(Cn2c(-c3ccc(CC(=O)N4CC5CC(C4)N5)cc3Cl)nc3c(OC4(C)CC4)ncnc32)c1 [Example T555, 1-(3,6-diazabicyclo[3.1.1]heptan-3-yl)-2-(3-chloro-4-(6-(1-methylcyclopropoxy)-9-((4-methylpyridin-2-yl)methyl)-9H-purin-8-yl)phenyl)ethan-1-one]
DLD-1 BRCA2−/− cells; [3]
  IC50: > 7940 nM
DLD-1 cells; [4]
  IC50: > 10000 nM

## CC1(Oc2ncnc3c2nc(-c2ccc(OCCN4CCNCC4)cc2Cl)n3CCc2cccnc2)CC1 [Example J8, 8-(2-chloro-4-(2-(piperazin-1-yl)ethoxy)phenyl)-6-(1-methylcyclopropoxy)-9-(2-(pyridin-3-yl)ethyl)-9H-purine]
DLD-1 BRCA2−/− cells; [7]
  IC50: > 10000 nM
DLD-1 cells; [8]
  IC50: 7940 nM

## Cc1c(-c2nc3c(OC4(C)CC4)ncnc3n2Cc2ccccc2)ccnc1OCCN1CCNCC1 [Example G14, 9-benzyl-8-(3-methyl-2-(2-(piperazin-1-yl)ethoxy)pyridin-4-yl)-6-(1-methylcyclopropoxy)-9H-purine]
DLD-1 BRCA2−/− cells; [7]
  IC50: 794 nM
DLD-1 cells; [8]
  IC50: 7940 nM

## COc1ccc(Cl)cc1Cn1c(-c2cccc(O[C@H]3C[C@@H](C(=O)O)C3)c2Cl)nc2c(OC3(C)CC3)ncnc21 [Example 52, (1s,3s)-3-(2-chloro-3-(9-(5-chloro-2-methoxybenzyl)-6-(1-methylcyclopropoxy)-9H-purin-8-yl)phenoxy)cyclobutane-1-carboxylic acid]
DLD-1 BRCA2−/− cells; [9]
  IC50: 12.6 nM
DLD-1 cells; [10]
  IC50: > 10000 nM

## C[C@H](CCOc1ccc(-c2nc3c(OC4(C)CC4)ncnc3n2Cc2cc(Cl)ccc2C#N)c(Cl)c1)C(=O)O [Example U81, (R)-4-(3-chloro-4-(9-(5-chloro-2-cyanobenzyl)-6-(1-methylcyclopropoxy)-9H-purin-8-yl)phenoxy)-2-methylbutanoic acid]
DLD-1 BRCA2−/− cells; [11]
  IC50: 20 nM
DLD-1 cells; [12]
  IC50: > 10000 nM

## CC(=O)N1CC(Oc2ccc(-c3nc4c(OC5(C)CC5)ncnc4n3Cc3cc(C)ccn3)c(Cl)c2)C1 [Example 40, 1-(3-(3-Chloro-4-(6-(1-methylcyclopropoxy)-9-((4-methylpyridin-2-yl)methyl)-9H-purin-8-yl)phenoxy)azetidin-1-yl)ethan-1-one]
DLD-1 BRCA2−/− cells; [9]
  IC50: 158 nM
DLD-1 cells; [10]
  IC50: > 10000 nM

## COc1ccc(Cl)cc1Cn1c(-c2cccc(OCC[C@@H](C)C(=O)O)c2Cl)nc2c(OC3(C)CC3)ncnc21 [Example U75, (R)-4-(2-chloro-3-(9-(5-chloro-2-methoxybenzyl)-6-(1-methylcyclopropoxy)-9H-purin-8-yl)phenoxy)-2-methylbutanoic acid]
DLD-1 BRCA2−/− cells; [11]
  IC50: 2 nM
DLD-1 cells; [12]
  IC50: > 10000 nM

## COc1ccc(F)cc1Cn1c(-c2cccc(OCCC(=O)O)c2Cl)nc2c(OC3(C)CC3)ncnc21 [Example U83, 3-(2-chloro-3-(9-(5-fluoro-2-methoxybenzyl)-6-(1-methylcyclopropoxy)-9H-purin-8-yl)phenoxy)propanoic acid]
DLD-1 BRCA2−/− cells; [11]
  IC50: 50.1 nM
DLD-1 cells; [12]
  IC50: > 10000 nM

## Cc1cnc(Cn2c(-c3ccc(OC4CCN(C)CC4)cc3Cl)nc3c(OC4(C)CC4)ncnc32)s1 [Example T241, 2-((8-(2-chloro-4-((1-methylpiperidin-4-yl)oxy)phenyl)-6-(1-methylcyclopropoxy)-9H-purin-9-yl)methyl)-5-methylthiazole]
DLD-1 BRCA2−/− cells; [5]
  IC50: 316 nM
DLD-1 cells; [6]
  IC50: > 10000 nM

Source: patent US20250195530A1, “POLQ INHIBITORS” (ASTRAZENECA AB, priority 2022, published 2025)
